Assay results: patent publication US7105229B2, “Coated particles, methods of making and using” (priority 1997, dated 2006)

Assay: Solubilization of Paclitaxel in nanostructured phase interior
Assay type: physicochemical
Procedure: A nanostructured liquid phase containing the antineoplastic drug Paclitaxel was prepared by solubilizing 0.045 grams of Paclitaxel, 0.57 grams of eugenol, […] of soy lecithin (Epikuron 200), 0.33 grams of glycerol, and 0.06 grams of cupric nitrate with 0.61 grams of methanol, and then evaporating off the methanol in an evaporating dish, with stirring during evaporation. An glycerol-rich upper solution was prepared by dissolving 0.09 grams of potassium iodide, 0.05 grams of Pluronic F-68, 0.44 grams of water and 1.96 grams of glycerol. After overlaying the upper phase, the system was sonicated, resulting in the dispersing of Paclitaxel-containing, nanostructured liquid phase into microparticles coated with crystalline iodine. […] The loading of Paclitaxel in the particle interior was quite high, namely on the order of 3 wt %, which in this case was so high that precipitation of some of the Paclitaxel within the interior of each particle may occur since the solubilization of Paclitaxel in this cubic phase at this high loading was metastable. […]

SMILES: CC(=O)O[C@H]1C(=O)[C@@]2(C)[C@H]([C@H](OC(=O)c3ccccc3)[C@]3(O)C[C@H](OC(=O)[C@H](O)[C@@H](NC(=O)c4ccccc4)c4ccccc4)C(C)=C1C3(C)C)[C@]1(OC(C)=O)CO[C@@H]1C[C@@H]2O [Paclitaxel]
- concentration of Paclitaxel in the interior at which solubilization is truly stable (thermodynamic equilibrium) (eugenol/soy lecithin/glycerol nanostructured phase of Example 36): ≤ 0.7%
- time taken for precipitation of Paclitaxel at metastable loading (loading on the order of 3 wt % of interior): hours or even days
